Measurements published in US20090149397A1, “TREATMENT OF CANCER WITH COMBINATIONS OF TOPOISOMERASE INHIBITORS AND PARP INHIBITORS” (priority 2007, published 2009).

What was measured:
[1] = test system: human tumor cells including colon, prostate, cervix, lung, melanoma, lymphoma, and leukemia; assay: In vitro proliferation of human tumor cells; type: cell-based
[2] = test system: human colon, lung, and cervical carcinoma xenograft; assay: Human colon, lung and cervical carcinoma xenograft models, BA administration; type: in vivo, nude and SCID mice
[3] = test system: human small cell lung cancer SW-2 cells; assay: Subcutaneous xenograft model of SCLC, BA plus topotecan; type: in vivo, SCID mice; details: SW-2 xenograft; for tumor growth delay: topotecan i.p. 0.5, 1 or 2 mg/kg, BA 25 mg/kg/week continuous infusion, BA value in 3 out of 6 animals
Method: The anti-tumor effect of a combination of BA and topotecan, one of the approved drugs for the treatment of small cell lung cancer (SCLC) in humans, is evaluated in an established subcutaneous xenograft model of SCLC. SCID mice (24 animals) are inoculated with human small cell lung cancer SW-2 cells (8×10^6 cells/animal) injected subcutaneously into the right flank of the mice. When the tumors reach about 80 mm^3 in size, the mice are randomly divided into four groups (6 animals per group). The first group of mice is treated with topotecan administered i.p. […] Alzet model osmotic pumps are implanted on days 1, 15, and 29. The pumps are pre-warmed for ˜1 hour at 37° C., and then implanted subcutaneously (s.c.) in the left flanks of isofluoraneanesthetized mice. The third group of mice receives a combination of topotecan and BA, using the same doses and schedules as in groups 1 and 2. A control group of animals receives phosphate-buffered saline (PBS) using the same schedule as the animals in group 2. Tumor growth is monitored by measuring tumor size twice per week. Tumor size is calculated using the formula: length×width×height×(½).

For NC(=O)c1ccc(I)c([N+](=O)[O-])c1 [BA, 4-iodo-3-nitrobenzamide], the “inhibition of proliferation of human tumor cells” value [1] was “inhibits the proliferation”, the “survival rate of animals” value ([2]; drug given daily or twice weekly) was “positively affects the survival rate” and the tumor growth ([2]; once-daily or twice-weekly administration of BA) was “inhibits tumor growth”. For the same compound, the “complete tumor regression, number of animals” value ([3]; out of 6 treated animals per group) was 3 animals and the tumor growth delay [3] was 34 days.

CC[C@@]1(O)C(=O)OCc2c1cc1n(c2=O)Cc2cc3c(CN(C)C)c(O)ccc3nc2-1 [topotecan, reference compound] was tested, and the tumor growth delay [3] was 12 days.
